Tests used:
Format in all cases: physicochemical
[1] = Distribution ratio of cesium extracted in organic solutions of crown ethers (Table 1); conditions: crown ether 0.1 mole/l in Fluoroheptanol n3; Sr and Cs 1 g/l, nitric acid about 3.0 mol/l
Procedure: Study was carried out for determining the distribution ratios of radionuclides, for example, strontium or cesium to be extracted by the extractants according to the invention containing various crown ethers as a complexing agent: bis(tert-butylbenzo)-18-crown-6 (subsequently referred to as DTBDB18C6), di-isooctylbenzo-18-crown-6 (subsequently referred to as DIODB18C6), bis(tert-butylcyclohexane-18-crown-6 (subsequently referred to as DTBDCH18C6), di-isooxyldicyclohexane-18-crown-6 (subsequently referred to as DIODCH18C6), bicyclohexane-18-crown-6 (subsequently referred to as DCH18C6) or dibenzo-21-crown-7 (subsequently referred to as DB21C7), in an organic solvent according to the invention: polyfluorinated telomeric alcohol 1,1,7-trihydrododecafluoroheptanol-1 (subsequently referred to as fluoroheptanol n3).
For comparison, the distribution ratios of strontium and cesium were determined using extractants containing similar crown ethers in another organic solvent (decane).
Taken for the tests were experimental aqueous nitrate solutions containing strontium and cesium in a concentration of 1 g/l with a content of nitric acid of about 3.0 mol/l.

[2] = Solubility of crown ethers in water and nitric acid from extractants with different organic solvents
Procedure: The study of solubility of extractants according to the invention and the extractants containing similar crown ethers in other solvents in aqueous and nitrate solutions was carried out.
Taken for the tests were crown ethers containing DCH18C6 or DB21C7 in a concentration of about 0.1 mole/l in different organic solvents. The extractants were mixed with aqueous or nitrate solutions with a content of nitric acid 3 mole/l in a closed thermostatically controlled chamber for 3 hours. Then the obtained water-organic systems were separated. The aqueous part after settling down and filtering was analyzed for a content of crown ethers using photometric measurements.

[3] = Influence of nitric acid concentration on extraction of sodium; conditions: crown ether about 0.1 mol/l in Fluoroheptanol n3
Procedure: Selected for study were extractants containing crown ethers: DB18C6, DTBDB18C6, DCH18C6 or DB21C7 in a concentration of about 0.1 mol/l in Fluoroheptanol n3. Used as experimental solutions were aqueous solutions of sodium nitrate whose concentration was determined using radiometric techniques on previously added aliquot of a sodium-22 isotope.

[4] = Interaction of extractants with sodium (organic/aqueous phase concentration)
Procedure: The characteristics of the extractants according to the invention in the process of extraction of sodium from acidic aqueous solutions of high-level waste were determined. For this purpose, the concentration of sodium in the organic and aqueous phases containing extractants based on DTBDB18C6 or DCH18C6 or DB21C7 in a concentration about of 0.05 mol/l in fluoroheptanol n3 were analyzed.

[5] = Extraction of cations of different metals (Table 8); conditions: for Distribution ratios, Pb: initial 0.05 g/l; for Distribution ratios, Mn: initial 0.4 g/l; for Distribution ratios, Ru: initial 0.75 g/l; for Distribution ratios, Ba / Distribution ratios, Cr / Distribution ratios, Cs / Distribution ratios, Sr / Distribution ratios, Zr: initial 1.0 g/l; for Distribution ratios, Ba / Distribution ratios, Al: crown ether 0.05 mol/l in Fluoroheptanol n3 80% / synthanol 20%, nitric acid about 190 g/l; for Distribution ratios, Ca: initial 2.0 g/l; for Distribution ratios, Ni: initial 4.0 g/l; for Distribution ratios, Al: initial 6.0 g/l; for Distribution ratios, Fe / Distribution ratios, Na: initial 10.0 g/l; for Distribution ratios, Rare-earth: initial 25.0 g/l
Excerpt: A process of extraction of cations of different metals from aqueous nitrate solutions was studied by processing them using the extractants according to the invention containing DCH18C6 or DB21C7 in an organic solvent comprising: Fluoroheptanol n3—80% by volume and synthanol—20% by volume at a concentration of crown ethers of 0.05 mol/l and a content of nitric acid about of 190 g/l. For comparison, the data were used given in a patent specification (U.S. Pat. No. 4,749,518, A) describing similar tests of extractants containing Crown XVI or Crown XVII with a cation exchanger—dinanylnaphthalene sulfonic acid in a matrix solution containing tributyl phosphate and kerosene.
The solutions were contacted with the extractants according to the invention in temperature-controlled ([…]) separating funnels for 5 minutes at a ratio of organic and aqueous phases of 1:1. After settling within 60 minutes, the phases were separated, and the aqueous phase was analyzed to determine the concentration of the elements.

[6] = Radiation resistance of the extractants (gamma irradiation)
Excerpt: The radiation resistance of the extractants according to the invention used for extraction radionuclides of strontium or cesium was studied. For this purpose, reaction mixtures consisting of biphase water-organic systems containing extractants based on crown ethers DCH18C6 or DB21C7 in Fluoroheptanol n3 and aqueous nitrate waste solutions, and, for comparison, reaction mixtures containing extractants based on crown ethers Crown XVI or Crown XVII with a cation exchanger—dinanylnaphthalene of sulfonic acids in a matrix solution comprising tributyl phosphate and kerosene were irradiated with gamma-rays […] in a temperature-controlled cell of stainless steel with continuous agitation by bubbling. The maximum integrated radiation dose was equal to 285.3 kGr. The extractant samples were tested and the extraction characteristics were measured before and after the irradiation to determine a decrease of the distribution ratio DMe due to the radiological destruction of extractant components.

[7] = Extraction of strontium in a dynamic countercurrent mode (7.1)
Excerpt: A starting aqueous solution whose composition and concentration of the components are given in Table 3 for a solution No.1 was contacted with the extractant according to the invention containing 0.05 mole/l of DCH18C6 in a solvent containing 20% by volume of synthanol and 80% by volume of Fluoroheptanol n3 in a continuous countercurrent process on a facility with extractors such as “mixer-settler” devices with impulse agitation and phase transportation. The extraction included eight steps of extraction, two washing steps, eight re-extraction steps and two steps of regeneration of the reused extractant.
When running the facility, radiometric monitoring devices were used to control the concentration of strontium in the refined products, re-extracts and reclaims, as well as the concentration of the crown ethers in the extracted products.

[8] = solvent 2,2-dihydrotrifluoroethyl pentafluoroethyl ether, H2O
[9] = solvent 2,2-dihydrotrifluoroethyl pentafluoroethyl ether, HNO3 3 mole/l
[10] = solvent Fluoroheptanol n3, HNO3 3 mole/l
[11] = solvent Tetrachloroethane, HNO3 3 mole/l, crown ether about 0.1 mole/l, 3 hours
[12] = solvent Trichlorethylene, HNO3 3 mole/l
[13] = solvent Trichlorobenzene, HNO3 3 mole/l
[14] = sodium in the aqueous phase 0.01 mol/l, crown ether about 0.05 mol/l in fluoroheptanol n3
[15] = sodium in the aqueous phase 0.1 mol/l, crown ether about 0.05 mol/l
[16] = sodium in the aqueous phase 0.2 mol/l, crown ether about 0.05 mol/l
[17] = sodium in the aqueous phase 0.4 mol/l, crown ether about 0.05 mol/l

For `c1ccc2c(c1)OCCOCCOCCOc1ccccc1OCCOCCO2` [DB21C7, dibenzo-21-crown-7], the “Distribution ratio Cesium” value [1] was 10.7, the “Concentration of crown ether in an aqueous phase” value (“Concentration of crown ether” for short) [2, 8] was 0.071 mol/l × 10^−3 and the “Concentration of crown ether” value [2, 9] was 0.112 mol/l × 10^−3. For the same compound, the “Concentration of crown ether” value ([2]; solvent Fluoroheptanol n3, H2O) was less than 0.025 mol/l × 10^−3, the “Concentration of crown ether” value [2, 10] was 0.068 mol/l × 10^−3 and the “Concentration of crown ether” value ([2]; solvent Tetrachloroethane, H2O) was 0.173 mol/l × 10^−3. For the same compound, the “Concentration of crown ether” value [2, 11] was 0.159 mol/l × 10^−3, the Remarks ([2]; solvent Tetrachloropropane) was “Insoluble” and the “Concentration of crown ether” value ([2]; solvent Trichlorethylene, H2O) was 0.188 mol/l × 10^−3. The “Concentration of crown ether” value [2, 12] was 0.218 mol/l × 10^−3, the “Concentration of crown ether” value ([2]; solvent Trichlorobenzene, H2O) was 0.168 mol/l × 10^−3 and the “Concentration of crown ether” value [2, 13] was 0.173 mol/l × 10^−3. For the same compound, the “Distribution ratios of sodium” value ([3]; nitric acid 0 mol/l) was 0, the “Distribution ratios of sodium” value ([3]; nitric acid 0.1 mol/l) was 0 and the “Distribution ratios of sodium” value ([3]; nitric acid 0.5 mol/l) was 0.005. For the same compound, the “Distribution ratios of sodium” value ([3]; nitric acid 1.0 mol/l) was 0.01, the “Distribution ratios of sodium” value ([3]; nitric acid 3.0 mol/l) was 0.1 and the “Distribution ratios of sodium” value ([3]; nitric acid 5.0 mol/l) was 0.12. The “Sodium concentration in the organic phase” value (from here on “Sodium concentration”) [4, 14] was 0 mol/L, the “Sodium concentration” value [4, 15] was 0.01 mol/L and the “Sodium concentration” value [4, 16] was 0.018 mol/L. The “Sodium concentration” value [4, 17] was 0.035 mol/L, the “Distribution ratios, Pb” value ([5]; same extractant conditions) was 0.02 and the “Distribution ratios, Rb” value ([5]; initial 0.12 g/l, same extractant conditions) was 0.02. For the same compound, the “Distribution ratios, Pd” value ([5]; initial 0.3 g/l, same extractant conditions) was 0.03, the “Distribution ratios, Mn” value ([5]; same extractant conditions) was 0.04 and the “Distribution ratios, Ru” value ([5]; same extractant conditions) was 0.004. For the same compound, the “Distribution ratios, Ba” value [5] was 1.02, the “Distribution ratios, Cr” value ([5]; same extractant conditions) was 0.02 and the “Distribution ratios, Cs” value ([5]; same extractant conditions) was 1.8. For the same compound, the “Distribution ratios, Sr” value ([5]; same extractant conditions) was 0.02, the “Distribution ratios, Zr” value ([5]; same extractant conditions) was 0.038 and the “Distribution ratios, Ca” value ([5]; same extractant conditions) was 0.02. The “Distribution ratios, Ni” value ([5]; same extractant conditions) was 0.03, the “Distribution ratios, Al” value [5] was 0.02 and the “Distribution ratios, Fe” value ([5]; same extractant conditions) was 0.014. The “Distribution ratios, Na” value ([5]; same extractant conditions) was 0.047, the “Distribution ratios, Rare-earth” value ([5]; same extractant conditions) was 0.04 and the “Distribution ratio before irradiation” value ([6]; Cs) was 2.83. For the same compound, the “Distribution ratio DMe after irradiation” value ([6]; Cs, dose 100.0 kGr (10^7 rad)) was 2.83, the “Distribution ratio after irradiation, % of original” value (“Distribution ratio … % of original” for short) ([6]; Cs, dose 100.0 kGr (10^7 rad)) was 100.0% and the “Distribution ratio DMe after irradiation” value ([6]; Cs, dose 285.3 kGr) was 2.65. The “Distribution ratio … % of original” value ([6]; Cs, dose 285.3 kGr) was 93.8%.

In the case of `C1CCC2OCCOCCOC3CCCCC3OCCOCCOC2C1` (centres unmarked) [DCH18C6, bicyclohexane-18-crown-6], the “Concentration of crown ether” value [2, 8] is reported as 0.301 mol/l × 10^−3, the “Concentration of crown ether” value [2, 9] is reported as 0.344 mol/l × 10^−3 and the “Concentration of crown ether” value ([2]; solvent Fluoroheptanol n3, H2O) is reported as less than 0.027 mol/l × 10^−3. The “Concentration of crown ether” value [2, 10] was 0.086 mol/l × 10^−3, the “Concentration of crown ether” value ([2]; solvent Tetrachloroethane, H2O) was 0.258 mol/l × 10^−3 and the “Concentration of crown ether” value [2, 11] was 0.139 mol/l × 10^−3. For the same compound, the “Concentration of crown ether” value ([2]; solvent Tetrachloropropane, H2O) was 0.968 mol/l × 10^−3, the “Concentration of crown ether” value ([2]; solvent Tetrachloropropane, HNO3 3 mole/l) was 1.72 mol/l × 10^−3 and the “Concentration of crown ether” value ([2]; solvent Trichlorethylene, H2O) was 0.65 mol/l × 10^−3. The “Concentration of crown ether” value [2, 12] was 0.94 mol/l × 10^−3, the “Concentration of crown ether” value ([2]; solvent Trichlorobenzene, H2O) was 1.142 mol/l × 10^−3 and the “Concentration of crown ether” value [2, 13] was 2.016 mol/l × 10^−3. The “Distribution ratios of sodium” value ([3]; nitric acid 0 mol/l) was 0.1, the “Distribution ratios of sodium” value ([3]; nitric acid 0.1 mol/l) was 0.12 and the “Distribution ratios of sodium” value ([3]; nitric acid 0.5 mol/l) was 0.12. The “Distribution ratios of sodium” value ([3]; nitric acid 1.0 mol/l) was 0.05, the “Distribution ratios of sodium” value ([3]; nitric acid 3.0 mol/l) was 0.02 and the “Distribution ratios of sodium” value ([3]; nitric acid 5.0 mol/l) was 0.01. For the same compound, the “Sodium concentration” value [4, 14] was 0 mol/L, the “Sodium concentration” value [4, 15] was 0.003 mol/L and the “Sodium concentration” value [4, 16] was 0.005 mol/L. The “Sodium concentration” value [4, 17] was 0.009 mol/L, the “Distribution ratios, Pb” value ([5]; same extractant conditions) was 4.2 and the “Distribution ratios, Mn” value ([5]; same extractant conditions) was 0.06. For the same compound, the “Distribution ratios, Ru” value ([5]; same extractant conditions) was 0.16, the “Distribution ratios, Ba” value [5] was 2.03 and the “Distribution ratios, Cr” value ([5]; same extractant conditions) was 0.02. For the same compound, the “Distribution ratios, Cs” value ([5]; same extractant conditions) was 0.02, the “Distribution ratios, Sr” value ([5]; same extractant conditions) was 3.6 and the “Distribution ratios, Zr” value ([5]; same extractant conditions) was 0.018. The “Distribution ratios, Ca” value ([5]; same extractant conditions) was 0.12, the “Distribution ratios, Ni” value ([5]; same extractant conditions) was 0.023 and the “Distribution ratios, Al” value [5] was 0.03. The “Distribution ratios, Fe” value ([5]; same extractant conditions) was 0.017, the “Distribution ratios, Na” value ([5]; same extractant conditions) was 0.01 and the “Distribution ratios, Rare-earth” value ([5]; same extractant conditions) was 0.04. The “Distribution ratio before irradiation” value ([6]; Sr) was 3.6, the “Distribution ratio DMe after irradiation” value ([6]; Sr, dose 100.0 kGr (10^7 rad)) was 3.4 and the “Distribution ratio … % of original” value ([6]; Sr, dose 100.0 kGr (10^7 rad)) was 94.4%. For the same compound, the “Distribution ratio DMe after irradiation” value ([6]; Sr, dose 285.3 kGr) was 3.0, the “Distribution ratio … % of original” value ([6]; Sr, dose 285.3 kGr) was 83.3% and the “Contents of strontium in the extracted products, in percent of the feedstock” value (shortened to “Contents … in percent of the feedstock”) ([7]; Re-extract) was 99.55% of the feedstock. For the same compound, the “Contents … in percent of the feedstock” value ([7]; Reclaim) was <0.1% of the feedstock, the “Contents … in percent of the feedstock” value ([7]; Refined product, 0.05 mol/l DCH18C6, Synthanol 20% / Fluoroheptanol n3 80%, solution No.1) was 0.35% of the feedstock and the Average concentrating factor ([7]; dynamic mode 7.1) was “about 1.7 times”. For the same compound, the “Efficiency of the extraction of strontium” value ([7]; dynamic mode 7.1) was “exceeds 99%”.
